# Measurements from PubChem BioAssay AID2060892 (Molecular Pharmacology Branch, DTP, NCI, 2025).
# System: HOP-62 complex spheroids with HUVEC/MSC, viability
# Experiment: Anticancer human tumor HOP-62 cell line growth inhibition [RAS];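 also: spheroids exposed to agents for seven days before readout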;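 as to viability, T/C: 100% = DMSO vehicle control viability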
# Details: for IC50: curve of first compound; for viability, T/C: stronger effect = lower value
# Summary of the method: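 Tumour cells grown as complex spheroids with HUVEC endothelial cells and mesenchymal stem cells, treated with RAS pathway inhibitor combinations. Each agent spans half-log steps from near clinical Cmax, or 10 microM where Cmax is unknown.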
# [1] = second compound 0.000949 µM, first compound 0.0316 µM
# [2] = second compound 0.000949 µM, first compound 0.1 µM
# [3] = second compound 0.000949 µM, first compound 0.316 µM
# [4] = second compound 0.000949 µM, first compound 1 µM
# [5] = second compound 0.000949 µM, first compound 3.16 µM
# [6] = second compound 0.000949 µM, first compound 10 µM
# [7] = second compound 0.003 µM, first compound 0.0316 µM
# [8] = second compound 0.003 µM, first compound 0.1 µM
# [9] = second compound 0.003 µM, first compound 0.316 µM
# [10] = second compound 0.003 µM, first compound 1 µM
# [11] = second compound 0.003 µM, first compound 3.16 µM
# [12] = second compound 0.003 µM, first compound 10 µM
# [13] = second compound 0.00949 µM, first compound 0.0316 µM
# [14] = second compound 0.00949 µM, first compound 0.1 µM
# [15] = second compound 0.00949 µM, first compound 0.316 µM
# [16] = second compound 0.00949 µM, first compound 1 µM
# [17] = second compound 0.00949 µM, first compound 3.16 µM
# [18] = second compound 0.00949 µM, first compound 10 µM
# [19] = second compound 0.03 µM, first compound 0.0316 µM
# [20] = second compound 0.03 µM, first compound 0.1 µM
# [21] = second compound 0.03 µM, first compound 0.316 µM
# [22] = second compound 0.03 µM, first compound 1 µM
# [23] = second compound 0.03 µM, first compound 3.16 µM
# [24] = second compound 0.03 µM, first compound 10 µM
# [25] = second compound 0.0949 µM, first compound 0.0316 µM
# [26] = second compound 0.0949 µM, first compound 0.1 µM
# [27] = second compound 0.0949 µM, first compound 0.316 µM
# [28] = second compound 0.0949 µM, first compound 1 µM
# [29] = second compound 0.0949 µM, first compound 3.16 µM
# [30] = second compound 0.0949 µM, first compound 10 µM
# [31] = second compound 0.3 µM, first compound 0.0316 µM
# [32] = second compound 0.3 µM, first compound 0.1 µM
# [33] = second compound 0.3 µM, first compound 0.316 µM
# [34] = second compound 0.3 µM, first compound 1 µM
# [35] = second compound 0.3 µM, first compound 3.16 µM
# [36] = second compound 0.3 µM, first compound 10 µM
# [37] = second compound 0.0316 µM, first compound 0.0316 µM
# [38] = second compound 0.0316 µM, first compound 0.1 µM
# [39] = second compound 0.0316 µM, first compound 0.316 µM
# [40] = second compound 0.0316 µM, first compound 1 µM
# [41] = second compound 0.1 µM, first compound 0.0316 µM
# [42] = second compound 0.1 µM, first compound 0.1 µM
# [43] = second compound 0.1 µM, first compound 0.316 µM
# [44] = second compound 0.1 µM, first compound 1 µM
# [45] = second compound 0.316 µM, first compound 0.0316 µM
# [46] = second compound 0.316 µM, first compound 0.1 µM
# [47] = second compound 0.316 µM, first compound 0.316 µM
# [48] = second compound 0.316 µM, first compound 1 µM
# [49] = second compound 1 µM, first compound 0.0316 µM
# [50] = second compound 1 µM, first compound 0.1 µM
# [51] = second compound 1 µM, first compound 0.316 µM
# [52] = second compound 1 µM, first compound 1 µM
# [53] = second compound 3.16 µM, first compound 0.0316 µM
# [54] = second compound 3.16 µM, first compound 0.1 µM
# [55] = second compound 3.16 µM, first compound 0.316 µM
# [56] = second compound 3.16 µM, first compound 1 µM
# [57] = second compound 10 µM, first compound 0.0316 µM
# [58] = second compound 10 µM, first compound 0.1 µM
# [59] = second compound 10 µM, first compound 0.316 µM
# [60] = second compound 10 µM, first compound 1 µM
smiles,measurement,setting,value
NC1c2ccccc2OC12CCN(c1cnc3c(N4CCCc5ncccc54)n[nH]c3n1)CC2 (stereo not drawn) + CCn1c(-c2cc(N3CCN(C)CC3)cnc2C(C)OC)c2c3cc(ccc31)-c1csc(n1)CC(NC(=O)C1CC1C)C(=O)N1CCCC(N1)C(=O)OCC(C)(C)C2,IC50,second compound 0.000949 µM,180 nM
same,IC50,second compound 0.003 µM,72 nM
same,IC50,second compound 0.00949 µM,< 31.6 nM
same,IC50,second compound 0.03 µM,< 31.6 nM
same,IC50,second compound 0.0949 µM,< 31.6 nM
same,IC50,second compound 0.3 µM,< 31.6 nM
same,"viability, T/C",[1],87.9%
same,"viability, T/C",[2],65.9%
same,"viability, T/C",[3],33.9%
same,"viability, T/C",[4],28.5%
same,"viability, T/C",[5],28.1%
same,"viability, T/C",[6],17.6%
same,"viability, T/C",[7],72.5%
same,"viability, T/C",[8],40.5%
same,"viability, T/C",[9],25.3%
same,"viability, T/C",[10],25%
same,"viability, T/C",[11],17.7%
same,"viability, T/C",[12],14%
same,"viability, T/C",[13],47.4%
same,"viability, T/C",[14],29.3%
same,"viability, T/C",[15],25%
same,"viability, T/C",[16],17.9%
same,"viability, T/C",[17],16.5%
same,"viability, T/C",[18],13.3%
same,"viability, T/C",[19],42.9%
same,"viability, T/C",[20],28.7%
same,"viability, T/C",[21],22.4%
same,"viability, T/C",[22],16.7%
same,"viability, T/C",[23],11.3%
same,"viability, T/C",[24],13.6%
same,"viability, T/C",[25],30.5%
same,"viability, T/C",[26],24.8%
same,"viability, T/C",[27],18.6%
same,"viability, T/C",[28],17.5%
same,"viability, T/C",[29],11.2%
same,"viability, T/C",[30],12.8%
same,"viability, T/C",[31],31.9%
same,"viability, T/C",[32],23.6%
same,"viability, T/C",[33],18.4%
same,"viability, T/C",[34],15.6%
same,"viability, T/C",[35],12.5%
same,"viability, T/C",[36],14.3%
C=CC(=O)N1CCN(c2nc(OCC3CCCN3C)nc3c(F)c(-c4nc(N)cc(C)c4C(F)(F)F)c(Cl)cc23)C(C)C1 (stereo not drawn) + C#Cc1c(F)ccc2cc(O)cc(-c3ncc4c(N5CC6CCC(C5)N6)nc(OCC56CCCN5CC(F)C6)nc4c3F)c12,IC50,second compound 0.0316 µM,> 1000 nM
same,IC50,second compound 0.1 µM,> 1000 nM
same,IC50,second compound 0.316 µM,> 1000 nM
same,IC50,second compound 1 µM,> 1000 nM
same,IC50,second compound 3.16 µM,> 1000 nM
same,IC50,second compound 10 µM,< 3.16 nM
same,"viability, T/C","second compound 0.0316 µM, first compound 0.00316 µM",79.5%
same,"viability, T/C","second compound 0.0316 µM, first compound 0.01 µM",71.2%
same,"viability, T/C",[37],65.5%
same,"viability, T/C",[38],68.2%
same,"viability, T/C",[39],70.6%
same,"viability, T/C",[40],62.1%
same,"viability, T/C","second compound 0.1 µM, first compound 0.00316 µM",86.7%
same,"viability, T/C","second compound 0.1 µM, first compound 0.01 µM",69.3%
same,"viability, T/C",[41],63.2%
same,"viability, T/C",[42],64.7%
same,"viability, T/C",[43],69.1%
same,"viability, T/C",[44],63%
same,"viability, T/C","second compound 0.316 µM, first compound 0.00316 µM",81.7%
same,"viability, T/C","second compound 0.316 µM, first compound 0.01 µM",68.9%
same,"viability, T/C",[45],62.9%
same,"viability, T/C",[46],58.5%
same,"viability, T/C",[47],61.1%
same,"viability, T/C",[48],61.8%
same,"viability, T/C","second compound 1 µM, first compound 0.00316 µM",90%
same,"viability, T/C","second compound 1 µM, first compound 0.01 µM",73.5%
same,"viability, T/C",[49],63.1%
same,"viability, T/C",[50],57.9%
same,"viability, T/C",[51],59.2%
same,"viability, T/C",[52],58.4%
same,"viability, T/C","second compound 3.16 µM, first compound 0.00316 µM",72.7%
same,"viability, T/C","second compound 3.16 µM, first compound 0.01 µM",70.1%
same,"viability, T/C",[53],57.4%
same,"viability, T/C",[54],61.1%
same,"viability, T/C",[55],53.9%
same,"viability, T/C",[56],50%
same,"viability, T/C","second compound 10 µM, first compound 0.00316 µM",48%
same,"viability, T/C","second compound 10 µM, first compound 0.01 µM",49.5%
same,"viability, T/C",[57],43.4%
same,"viability, T/C",[58],48.4%
same,"viability, T/C",[59],43.7%
same,"viability, T/C",[60],37%
CCC(CC)c1cc(NC2CCC(N)C2)n2nccc2n1 (stereo not drawn) + C#Cc1c(F)ccc2cc(O)cc(-c3ncc4c(N5CC6CCC(C5)N6)nc(OCC56CCCN5CC(F)C6)nc4c3F)c12,IC50,second compound 0.0316 µM,1650 nM
same,IC50,second compound 0.1 µM,1860 nM
same,IC50,second compound 0.316 µM,1800 nM
same,IC50,second compound 1 µM,1750 nM
same,IC50,second compound 3.16 µM,1540 nM
same,IC50,second compound 10 µM,1120 nM
same,"viability, T/C",[37],108%
same,"viability, T/C",[38],111%
same,"viability, T/C",[39],107%
same,"viability, T/C",[40],88.2%
same,"viability, T/C","second compound 0.0316 µM, first compound 3.16 µM",0.7%
same,"viability, T/C","second compound 0.0316 µM, first compound 10 µM",0.37%
same,"viability, T/C",[41],112%
same,"viability, T/C",[42],115%
same,"viability, T/C",[43],118%
same,"viability, T/C",[44],107%
same,"viability, T/C","second compound 0.1 µM, first compound 3.16 µM",1.36%
same,"viability, T/C","second compound 0.1 µM, first compound 10 µM",1.21%
same,"viability, T/C",[45],122%
same,"viability, T/C",[46],105%
same,"viability, T/C",[47],111%
same,"viability, T/C",[48],101%
same,"viability, T/C","second compound 0.316 µM, first compound 3.16 µM",0.69%
same,"viability, T/C","second compound 0.316 µM, first compound 10 µM",0.93%
same,"viability, T/C",[49],108%
same,"viability, T/C",[50],104%
same,"viability, T/C",[51],99.9%
same,"viability, T/C",[52],96.7%
same,"viability, T/C","second compound 1 µM, first compound 3.16 µM",0.48%
same,"viability, T/C","second compound 1 µM, first compound 10 µM",0.25%
same,"viability, T/C",[53],83.7%
same,"viability, T/C",[54],90.8%
same,"viability, T/C",[55],88.3%
same,"viability, T/C",[56],79.5%
same,"viability, T/C","second compound 3.16 µM, first compound 3.16 µM",0.74%
same,"viability, T/C","second compound 3.16 µM, first compound 10 µM",1.33%
same,"viability, T/C",[57],48.1%
same,"viability, T/C",[58],47.3%
same,"viability, T/C",[59],56%
same,"viability, T/C",[60],70.2%
same,"viability, T/C","second compound 10 µM, first compound 3.16 µM",0.95%
same,"viability, T/C","second compound 10 µM, first compound 10 µM",0.56%
Cc1nc(N2CCC3(CC2)COC(C)C3N)c(CO)nc1Sc1ccnc(N)c1Cl (stereo not drawn) + CCn1c(-c2cc(N3CCN(C)CC3)cnc2C(C)OC)c2c3cc(ccc31)-c1csc(n1)CC(NC(=O)C1CC1C)C(=O)N1CCCC(N1)C(=O)OCC(C)(C)C2,IC50,second compound 0.000949 µM,1880 nM
same,IC50,second compound 0.003 µM,439 nM
same,IC50,second compound 0.00949 µM,124 nM
same,IC50,second compound 0.03 µM,< 31.6 nM
same,IC50,second compound 0.0949 µM,< 31.6 nM
same,IC50,second compound 0.3 µM,< 31.6 nM
same,"viability, T/C",[1],110%
same,"viability, T/C",[2],98.2%
same,"viability, T/C",[3],50.6%
same,"viability, T/C",[4],63.7%
same,"viability, T/C",[5],56.7%
same,"viability, T/C",[6],21.8%
same,"viability, T/C",[7],83.8%
same,"viability, T/C",[8],66.5%
same,"viability, T/C",[9],47.2%
same,"viability, T/C",[10],45.6%
same,"viability, T/C",[11],33.1%
same,"viability, T/C",[12],18.4%
same,"viability, T/C",[13],71.4%
same,"viability, T/C",[14],49.3%
same,"viability, T/C",[15],40.6%
same,"viability, T/C",[16],31.8%
same,"viability, T/C",[17],24%
same,"viability, T/C",[18],19%
same,"viability, T/C",[19],46.5%
same,"viability, T/C",[20],40.6%
same,"viability, T/C",[21],36.9%
same,"viability, T/C",[22],24.6%
same,"viability, T/C",[23],16.8%
same,"viability, T/C",[24],20.9%
same,"viability, T/C",[25],37.9%
same,"viability, T/C",[26],32.6%
same,"viability, T/C",[27],27.4%
same,"viability, T/C",[28],20.6%
same,"viability, T/C",[29],13.9%
same,"viability, T/C",[30],17.9%
same,"viability, T/C",[31],37.1%
same,"viability, T/C",[32],29.9%
same,"viability, T/C",[33],28.8%
same,"viability, T/C",[34],19.9%
same,"viability, T/C",[35],18.4%
same,"viability, T/C",[36],16%
